Measurements as given in ChEMBL document CHEMBL1201862, “PubChem BioAssay data set” (2004).
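A five-concentration, 48-hour dose response in 96-well plates underlies each endpoint, interpolated linearly between surrounding concentrations. GI50 = concentration required for 50% inhibition of growth.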 The source made the active and inactive calls. Cut-off read from the data, not from the text of the source: active = GI50 up to about 1.1 µM and inactive = higher.

Columns and labels:
Test in all cases: DTP human tumour cell line panel, 48 h
[1] = tested on: SF-539
[2] = tested on: MCF7
[3] = tested on: MDA-MB-435
[4] = tested on: SK-MEL-5
[5] = tested on: MDA-MB-231
[6] = tested on: NCI-H226
[7] = tested on: PC-3
[8] = tested on: NCI-H23
[9] = tested on: BT-549
[10] = tested on: DU-145
[11] = tested on: T47D
[12] = tested on: Malme-3M
[13] = tested on: MDA-N
[14] = tested on: Hs-578T
[15] = tested on: 786-0
[16] = tested on: KM12
[17] = tested on: COLO 205
[18] = tested on: NCI/ADR-RES
[19] = tested on: HCT-15

Row | Structure (SMILES) | GI50 [1] | GI50 [2] | GI50 [3] | GI50 [4] | GI50 [5] | GI50 [6] | GI50 [7] | GI50 [8] | GI50 [9] | GI50 [10] | GI50 [11] | GI50 [12] | GI50 [13] | GI50 [14] | GI50 [15] | GI50 [16] | GI50 [17] | GI50 [18] | GI50 [19] [µM]
1 | CC/N=C(\N)CSS(=O)(=O)O | > 100 µM (inactive) | > 100 µM (inactive) | > 100 µM (inactive) | > 100 µM (inactive) | > 100 µM (inactive) | > 100 µM (inactive) | > 100 µM (inactive) | > 100 µM (inactive) | > 100 µM (inactive) | > 100 µM (inactive) | > 100 µM (inactive) | > 100 µM (inactive) | > 100 µM (inactive) | > 100 µM (inactive) | > 100 µM (inactive) | > 100 µM (inactive) | > 100 µM (inactive) | > 100 µM (inactive) | > 100
2 | Oc1cccc(-c2nc3ccccc3s2)c1 | 28.7 µM (inactive) | 16.4 µM (inactive) | 30.7 µM (inactive) |  | 22.1 µM (inactive) | 10.8 µM (inactive) | 23.2 µM (inactive) | 15.8 µM (inactive) | 33 µM (inactive) | 38.7 µM (inactive) | 10.2 µM (inactive) | 2.99 µM (inactive) | 27.8 µM (inactive) | 15.5 µM (inactive) | 71.6 µM (inactive) | 14.7 µM (inactive) | 35.9 µM (inactive) | 21.9 µM (inactive) | 25.5
3 | NN=C(S)Nc1cccc(Cl)c1 | > 100 µM (inactive) | > 100 µM (inactive) | 83.6 µM (inactive) | > 100 µM (inactive) | > 100 µM (inactive) |  | 48.2 µM (inactive) | > 100 µM (inactive) | > 100 µM (inactive) | > 100 µM (inactive) | 74.8 µM (inactive) | > 100 µM (inactive) | > 100 µM (inactive) | > 100 µM (inactive) | > 100 µM (inactive) | 82 µM (inactive) | 89.7 µM (inactive) | 53.5 µM (inactive) | 48.2
4 | Cc1ccc(C2(O)c3ccccc3C(=O)N(C)C2(O)c2ccc(C)cc2)cc1 (centres undefined) | 45.1 µM (inactive) | 38.9 µM (inactive) | > 100 µM (inactive) | 33.5 µM (inactive) | 28.2 µM (inactive) |  | > 100 µM (inactive) | > 100 µM (inactive) | 91.8 µM (inactive) | > 100 µM (inactive) | > 100 µM (inactive) | > 100 µM (inactive) | > 100 µM (inactive) | 22.6 µM (inactive) | 37 µM (inactive) | 29.9 µM (inactive) | > 100 µM (inactive) | 39.4 µM (inactive) | 52
5 | COc1ccc(CC2COc3cc(O)cc(O)c3C2=O)cc1O (centres undefined) | 2.97 µM (inactive) | 6.21 µM (inactive) | 1.32 µM (inactive) | 5.13 µM (inactive) | 6.49 µM (inactive) |  | 7.08 µM (inactive) | 16.6 µM (inactive) | 82.2 µM (inactive) | 9.48 µM (inactive) | 3.99 µM (inactive) | 4.21 µM (inactive) | 1.47 µM (inactive) | 2.4 µM (inactive) | 9.75 µM (inactive) | 2.81 µM (inactive) | 20.4 µM (inactive) | 2.64 µM (inactive) | 3.16
6 | C[N+](C)(C)c1ncnc2c1ncn2C1CC(O)C(CO)O1 (centres undefined) | > 100 µM (inactive) | > 100 µM (inactive) | > 100 µM (inactive) | > 100 µM (inactive) | > 100 µM (inactive) | > 100 µM (inactive) | > 100 µM (inactive) | > 100 µM (inactive) | > 100 µM (inactive) | > 100 µM (inactive) | > 100 µM (inactive) | > 100 µM (inactive) | > 100 µM (inactive) | > 100 µM (inactive) | > 100 µM (inactive) | > 100 µM (inactive) | > 100 µM (inactive) | > 100 µM (inactive) | > 100
7 | CC(C)CNc1nc2ncnc(N)c2[nH]1 | > 100 µM (inactive) | > 100 µM (inactive) | > 100 µM (inactive) | > 100 µM (inactive) | > 100 µM (inactive) | > 100 µM (inactive) | > 100 µM (inactive) | > 100 µM (inactive) | > 100 µM (inactive) | > 100 µM (inactive) | > 100 µM (inactive) | > 100 µM (inactive) | > 100 µM (inactive) | > 100 µM (inactive) | > 100 µM (inactive) | > 100 µM (inactive) | > 100 µM (inactive) | > 100 µM (inactive) | > 100
8 | COC1OC2COC1(OC)C1OC(C)(C)OC21 (centres undefined) |  | > 100 µM (inactive) | > 100 µM (inactive) | > 100 µM (inactive) | > 100 µM (inactive) | > 100 µM (inactive) | > 100 µM (inactive) | > 100 µM (inactive) | > 100 µM (inactive) | > 100 µM (inactive) | > 100 µM (inactive) | > 100 µM (inactive) | > 100 µM (inactive) | > 100 µM (inactive) | > 100 µM (inactive) | > 100 µM (inactive) | > 100 µM (inactive) | > 100 µM (inactive) | > 100
9 | FC(F)(F)c1ccc2c(c1)nc1n2C(c2c(Cl)cccc2Cl)SC1 (centres undefined) | 19.7 µM (inactive) | 15.7 µM (inactive) | 16.8 µM (inactive) |  | 17 µM (inactive) | 21.1 µM (inactive) | 15 µM (inactive) | 20.5 µM (inactive) | 23 µM (inactive) | 21.4 µM (inactive) | 15.8 µM (inactive) | 18.2 µM (inactive) | 16.6 µM (inactive) | 19.7 µM (inactive) | 16.6 µM (inactive) | 12.2 µM (inactive) |  | 21.5 µM (inactive) | 21.6
10 | CC1=NC(=O)CNN1C1=NNC2(C(=O)N1)c1ccccc1-c1ccccc12 | > 100 µM (inactive) | > 100 µM (inactive) | > 100 µM (inactive) | > 100 µM (inactive) | > 100 µM (inactive) | > 100 µM (inactive) | > 100 µM (inactive) | > 100 µM (inactive) | > 100 µM (inactive) | > 100 µM (inactive) |  | > 100 µM (inactive) | > 100 µM (inactive) | 23.5 µM (inactive) | > 100 µM (inactive) |  | > 100 µM (inactive) | > 100 µM (inactive) | > 100
11 | Nn1c(S)nnc1COc1cccc(OCc2nnc(S)n2N)c1 | 80 µM (inactive) | 75 µM (inactive) | > 100 µM (inactive) |  | > 100 µM (inactive) | > 100 µM (inactive) | > 100 µM (inactive) | > 100 µM (inactive) | > 100 µM (inactive) | > 100 µM (inactive) | > 100 µM (inactive) | > 100 µM (inactive) | > 100 µM (inactive) | > 100 µM (inactive) | 34.3 µM (inactive) | > 100 µM (inactive) | 98.4 µM (inactive) | > 100 µM (inactive) | 58.7
12 | N[C@]1(C(=O)O)C[C@@H]2C(Br)=NO[C@@H]2C1 | > 100 µM (inactive) | > 100 µM (inactive) | > 100 µM (inactive) | > 100 µM (inactive) | > 100 µM (inactive) | > 100 µM (inactive) | > 100 µM (inactive) | > 100 µM (inactive) | > 100 µM (inactive) | > 100 µM (inactive) | > 100 µM (inactive) | > 100 µM (inactive) |  | > 100 µM (inactive) | > 100 µM (inactive) | > 100 µM (inactive) | > 100 µM (inactive) | > 100 µM (inactive) | 76.9
13 | O=C(O)C(=C\c1ccc2c(c1)OCO2)/C(=C/c1ccc2c(c1)OCO2)C(=O)O |  | > 100 µM (inactive) | > 100 µM (inactive) | > 100 µM (inactive) |  | > 100 µM (inactive) | > 100 µM (inactive) | > 100 µM (inactive) | > 100 µM (inactive) | > 100 µM (inactive) | > 100 µM (inactive) | > 100 µM (inactive) | > 100 µM (inactive) | > 100 µM (inactive) |  | > 100 µM (inactive) | > 100 µM (inactive) | > 100 µM (inactive) | > 100
14 | N#CCCN(CCN(CCC#N)C(=O)Nc1ccccc1)C(=O)Nc1ccccc1 |  | > 100 µM (inactive) |  | > 100 µM (inactive) | > 100 µM (inactive) | > 100 µM (inactive) | 69.3 µM (inactive) | 61.4 µM (inactive) | 31 µM (inactive) | 76.9 µM (inactive) | > 100 µM (inactive) | > 100 µM (inactive) | > 100 µM (inactive) | 33.8 µM (inactive) | 75.5 µM (inactive) |  | > 100 µM (inactive) | 72.6 µM (inactive) | > 100
15 | CC1(C)[C@H](C(=O)O)N2C(=O)[C@@H](NS(=O)(=O)c3ccc([N+](=O)[O-])cc3)[C@H]2S1(=O)=O | > 100 µM (inactive) | > 100 µM (inactive) | > 100 µM (inactive) | > 100 µM (inactive) | > 100 µM (inactive) | > 100 µM (inactive) | > 100 µM (inactive) | > 100 µM (inactive) | > 100 µM (inactive) | > 100 µM (inactive) | > 100 µM (inactive) | > 100 µM (inactive) | > 100 µM (inactive) | > 100 µM (inactive) | > 100 µM (inactive) | > 100 µM (inactive) | > 100 µM (inactive) | > 100 µM (inactive) | > 100
16 | O=c1oc(-c2ccc(O)c(O)c2)cc2cccc(O)c12 [THUNBERGINOL A] | 23.9 µM (inactive) | 9.57 µM (inactive) | 24.2 µM (inactive) | 9.4 µM (inactive) |  |  | 11.1 µM (inactive) | 16.1 µM (inactive) | 15.6 µM (inactive) | 23.8 µM (inactive) | 0.871 µM (active) | 31.3 µM (inactive) |  | 21.2 µM (inactive) | 19.6 µM (inactive) | 11.4 µM (inactive) | 10.5 µM (inactive) | 14.6 µM (inactive) | 4.99
